Experimental data from ChEMBL document CHEMBL4715775, “Synthesis and structure-activity relationships of 1-benzylindane derivatives as selective agonists for estrogen receptor beta” (Bioorg Med Chem, 2016).
pEC50: −log10 of the molar value.

Tests used:
Estrogen receptor [1] = target: T1, Estrogen receptor (Homo sapiens, UniProt P03372)
T1 sequence (P03372 whole entry): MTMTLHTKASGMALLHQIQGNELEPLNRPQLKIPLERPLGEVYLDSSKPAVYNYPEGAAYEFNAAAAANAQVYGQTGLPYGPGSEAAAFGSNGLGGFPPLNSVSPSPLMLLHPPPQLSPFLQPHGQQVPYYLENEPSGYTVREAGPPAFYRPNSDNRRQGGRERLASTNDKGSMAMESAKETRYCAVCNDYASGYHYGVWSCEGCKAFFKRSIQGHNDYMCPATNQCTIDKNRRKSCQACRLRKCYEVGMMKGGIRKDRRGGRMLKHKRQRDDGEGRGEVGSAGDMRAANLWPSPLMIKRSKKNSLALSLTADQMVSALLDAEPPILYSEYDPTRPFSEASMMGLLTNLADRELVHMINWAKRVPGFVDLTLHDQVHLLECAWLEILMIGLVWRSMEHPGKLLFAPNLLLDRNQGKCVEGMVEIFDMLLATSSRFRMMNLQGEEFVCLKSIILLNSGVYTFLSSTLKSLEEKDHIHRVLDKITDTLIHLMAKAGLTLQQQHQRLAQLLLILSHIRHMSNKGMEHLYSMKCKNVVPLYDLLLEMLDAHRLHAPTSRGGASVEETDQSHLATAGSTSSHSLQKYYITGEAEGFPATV
Description: Agonist activity at human ERalpha receptor expressed in HEK293T cells transfected with pGL4.27-(ERE)3-Luc assessed as transcriptional activation measured after 16 hrs by Dual-Glo luciferase assay

Estrogen receptor beta = Estrogen receptor beta (Homo sapiens, UniProt Q92731)
Sequence of Estrogen receptor beta (Q92731 whole entry): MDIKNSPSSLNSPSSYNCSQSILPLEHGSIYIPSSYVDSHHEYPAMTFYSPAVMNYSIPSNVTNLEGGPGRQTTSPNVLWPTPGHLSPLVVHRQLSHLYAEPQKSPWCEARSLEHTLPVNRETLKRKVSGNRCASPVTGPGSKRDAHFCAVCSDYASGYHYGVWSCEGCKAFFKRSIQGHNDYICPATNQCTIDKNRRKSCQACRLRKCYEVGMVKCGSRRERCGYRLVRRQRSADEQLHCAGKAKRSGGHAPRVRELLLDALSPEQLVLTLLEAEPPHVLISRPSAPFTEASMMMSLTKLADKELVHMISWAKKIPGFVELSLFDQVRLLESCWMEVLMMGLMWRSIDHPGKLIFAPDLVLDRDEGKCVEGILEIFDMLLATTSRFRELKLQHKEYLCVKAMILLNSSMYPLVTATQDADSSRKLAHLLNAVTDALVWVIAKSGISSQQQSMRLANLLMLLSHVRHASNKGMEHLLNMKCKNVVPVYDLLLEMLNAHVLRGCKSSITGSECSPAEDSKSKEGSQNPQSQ
Description: Agonist activity at human ERbeta receptor expressed in HEK293T cells transfected with pGL4.27-(ERE)3-Luc assessed as transcriptional activation measured after 16 hrs by Dual-Glo luciferase assay

Estrogen receptor [2] = target: T1, Estrogen receptor; assay: Agonist activity at human ERalpha receptor expressed in HEK293T cells transfected with pGL4.27-(ERE)3-Luc assessed as transcriptional activation at 10 uM measured after 16 hrs by Dual-Glo luciferase assay relative to 17beta-estradiol; format: cell-based

Structure (SMILES)	pEC50 (Estrogen receptor [1])	pEC50 (Estrogen receptor beta)	Activity (Estrogen receptor [2]) [%]
Oc1ccc(CC2CCCc3cc(O)ccc32)cc1 (centres undefined)	6.99	9.74	
Oc1ccc(CC2CCc3c(O)cccc32)cc1 (centres undefined)		7.14	
CCC(Cc1ccc(O)cc1)c1ccc(O)cc1 (centres undefined) [ISOBUTESROL]	6.73	9.64	
Oc1ccc(CC2CCCCc3cc(O)ccc32)cc1 (centres undefined)	6.91	9.82	
CCCCC1(Cc2ccc(O)cc2)CCc2cc(O)ccc21 (centres undefined)		8.18	42
Oc1ccc(CCc2ccc(O)cc2)cc1			47
Oc1ccc(CC2CCc3ccc(O)cc32)cc1 (centres undefined)	5.68	7.59	
Oc1cccc(CC2CCc3cc(O)ccc32)c1 (centres undefined)	5.51	7.49	
CCC(c1ccc(O)cc1)C1CCc2cc(O)ccc21 (centres undefined)		10.00	

The remaining lines, values ahead:

pEC50 (Estrogen receptor [1])	pEC50 (Estrogen receptor beta)	Activity (Estrogen receptor [2]) [%]	Structure (SMILES)
6.32			CC1(Cc2ccc(O)cc2)CCc2cc(O)ccc21 (centres undefined)
	7.94	7	N#CC1(Cc2ccc(O)c(Cl)c2)CCc2cc(O)ccc21 (centres undefined)
5.74	9.04		N#CC1(Cc2ccc(O)c(F)c2)CCc2cc(O)ccc21 (centres undefined)
	8.52		N#CCC1(Cc2ccc(O)cc2)CCc2cc(O)ccc21 (centres undefined)
6.59	9.82		N#CC1(Cc2ccc(O)cc2F)CCc2cc(O)ccc21 (centres undefined)
6.02	9.32		Cc1cc(O)ccc1CC1(C#N)CCc2cc(O)ccc21 (centres undefined)
6.77			CCCC1(Cc2ccc(O)cc2)CCc2cc(O)ccc21 (centres undefined)
	10.30		N#CC1(Cc2ccc(O)cc2Cl)CCc2cc(O)ccc21 (centres undefined)
6.94	9.44		CCC1(Cc2ccc(O)cc2)CCc2cc(O)ccc21 (centres undefined)
5.55			N#CC1(Cc2ccc(O)cc2)CCc2cc(O)ccc21 (racemic)
5.52			N#C[C@]1(Cc2ccc(O)cc2)CCc2cc(O)ccc21
	7.97	2	Cc1cc(CC2(C#N)CCc3cc(O)ccc32)ccc1O (centres undefined)
5.62			N#C[C@@]1(Cc2ccc(O)cc2)CCc2cc(O)ccc21
